Holding throughout (assay): IC50 Determination
Assay [1] has as its target T1, Aldehyde dehydrogenase, dimeric NADP-preferring (Homo sapiens, UniProt P30838).
T1 sequence (P30838 whole entry): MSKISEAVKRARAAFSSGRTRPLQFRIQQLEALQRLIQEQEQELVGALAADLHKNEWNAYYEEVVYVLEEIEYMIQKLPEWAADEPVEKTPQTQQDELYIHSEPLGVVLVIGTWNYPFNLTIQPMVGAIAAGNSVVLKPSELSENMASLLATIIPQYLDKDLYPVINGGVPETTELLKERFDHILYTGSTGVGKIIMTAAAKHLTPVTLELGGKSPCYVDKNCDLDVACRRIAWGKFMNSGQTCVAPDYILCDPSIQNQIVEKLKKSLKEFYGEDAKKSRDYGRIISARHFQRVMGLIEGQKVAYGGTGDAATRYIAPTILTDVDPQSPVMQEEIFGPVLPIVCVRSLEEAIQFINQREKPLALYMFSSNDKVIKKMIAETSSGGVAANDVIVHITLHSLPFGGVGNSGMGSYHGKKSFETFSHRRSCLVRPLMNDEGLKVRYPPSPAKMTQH
As to the method: (§1) To determine the IC50 values for CB29 and its analogues, propionaldehyde was used as the substrate for ALDH1A1 and ALDH2 and benzaldehyde was used as the substrate for ALDH3A1. The assays were performed at various concentrations of inhibitors, ranging from 50 nM to 250 uM, following 1 min preincubation. All reactions were initiated by the addition of the aldehyde substrate.

For assay [2], the target named is T2, Aldehyde dehydrogenase 1A1 (Homo sapiens, UniProt P00352).
T2 sequence (P00352 whole entry): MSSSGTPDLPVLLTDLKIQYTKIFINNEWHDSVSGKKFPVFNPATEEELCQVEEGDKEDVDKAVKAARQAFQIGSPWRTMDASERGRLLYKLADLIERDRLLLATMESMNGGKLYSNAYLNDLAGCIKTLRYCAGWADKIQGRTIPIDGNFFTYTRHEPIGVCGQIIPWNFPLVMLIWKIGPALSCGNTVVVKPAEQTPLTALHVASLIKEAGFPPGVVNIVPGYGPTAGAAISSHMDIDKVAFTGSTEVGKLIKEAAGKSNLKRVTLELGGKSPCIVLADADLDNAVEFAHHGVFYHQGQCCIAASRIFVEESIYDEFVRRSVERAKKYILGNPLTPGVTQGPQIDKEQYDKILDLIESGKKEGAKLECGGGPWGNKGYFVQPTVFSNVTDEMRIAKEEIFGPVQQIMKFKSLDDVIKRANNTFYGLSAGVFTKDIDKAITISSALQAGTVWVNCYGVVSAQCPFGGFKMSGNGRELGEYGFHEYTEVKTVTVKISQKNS
As to the method:
as §1

Assay [3] addresses T1, Aldehyde dehydrogenase, dimeric NADP-preferring. The source holds these as a separate data set.

In turn, `CN(C)c1ccc(Nc2ccc(S(=O)(=O)C(F)(F)F)cc2[N+](=O)[O-])cc1` [CB29 (derivative 5)] showed an IC50 in assay [1] of 17 µM.
As to `CS(=O)(=O)c1ccc(Nc2ccc(NCC3CCCC3)cc2)c(S(C)(=O)=O)c1` [CB29 (derivative 6)], the IC50 in assay [2] stood at 32 µM; in assay [1] it was 40 µM.
`CC(C)NS(=O)(=O)c1ccc(Nc2cccc(NC3CC3)c2)c([N+](=O)[O-])c1` [CB29 (derivative 9)]: 26.3 µM corresponded to half-maximal inhibition in assay [1] (IC50).
Take `CC(C)C(=O)Nc1ccc(Nc2ccc(S(C)(=O)=O)cc2[N+](=O)[O-])cc1` [CB29 (derivative 12)]: the IC50 in assay [2] came to 16.8 µM; in assay [1], 19.6 µM.
`CNS(=O)(=O)c1ccc(Nc2ccc(NC(=O)CC(C)C)cc2)c([N+](=O)[O-])c1` [CB29 (derivative 13)]: the IC50 turned out to be 11.6 µM in assay [2] and 42.3 µM in assay [1].
For the compound `CCN(CC)S(=O)(=O)c1ccc(Nc2ccc(NC(=O)C(C)C)cc2)c([N+](=O)[O-])c1` [CB29 (derivative 14)], the IC50 in assay [2] was 8.3 µM; in assay [1], 100 µM.
In the case of `CC(Nc1ccc(S(C)(=O)=O)cc1[N+](=O)[O-])C(=O)O` (configuration not stated) [CB29 (derivative 16)], in assay [2], half-maximal inhibition (IC50) was put at 50 µM.
In assay [1], `CS(=O)(=O)c1ccc(Nc2ccc3c(c2)CCC3)c([N+](=O)[O-])c1` [CB29 (derivative 17)] had an IC50 of 26.9 µM.
Regarding `CC(C)NS(=O)(=O)c1ccc(Nc2ccc3c(c2)CCC3)c([N+](=O)[O-])c1` [CB29 (derivative 18)], in assay [1], the midpoint of inhibition, the IC50, lay at 30.5 µM.
`CC(C)NS(=O)(=O)c1ccc(NC2CCN(CC(=O)Nc3ccccc3)CC2)c([N+](=O)[O-])c1` [CB29 (derivative 19)]: the IC50 in assay [1] is 25.6 µM. The IC50 values of the last two compounds are within 1.5-fold of each other.
The compound `CC(=O)Nc1ccc(Oc2ccc(S(=O)(=O)C(F)(F)F)cc2[N+](=O)[O-])cc1` [CB29 (derivative 20)] displayed an IC50 in assay [1] of 100 µM. Against the preceding compound, the IC50 is about 3.9-fold higher.
Consider `CC(=O)Nc1ccc(Nc2ccc(S(C)(=O)=O)cc2[N+](=O)[O-])cc1` [CB29], for which the IC50 in assay [1] amounted to 16 µM. Besides, the Ki in assay [3] was found to be 4.7 µM.
